What was measured:
TIGK cells [1] = test: ATP assay (BAR, BAR-EFs); assay type: cell-based
Procedure: (§1) Telomerase immortalized gingival keratinocytes (TIGKs) were grown on 12-well collagen-coated plates (Becton Dickinson, Bedford, MA) and cultured using DermaLife K Calcium Free Medium (LifeFactors®) supplemented with penicillin/streptomycin (100 U/mL final concentration; St. Louis, MO), insulin (5 μg/mL), recombinant human (rh), L-glutamine (6 mM), apo-transferrin (5 μg/mL), epinephrine (1 μM), rh TGF-α (0.5 ng/mL), extract P™, calcium chloride (0.06 mM) and hydrocortisone hemisuccinate (100 ng/mL). The cells were incubated at 37° C. in the presence of 5% CO2 for 6 days until they reached 95% confluence.
ATP Assay: The metabolic activity of TIGK cells was assessed by measuring total ATP levels using the CellTiter-Glo reagent (Promega, Madison WI), as described by the manufacturer. TIGK cells were seeded at a density of 6×10^4 cells in 1 mL media per well and incubated at 37° C., 5% CO2 for 24 hr in a 12-well flat bottom plate. Cells were then incubated with BAR or 10:90 PLGA-PEO BAR-EFs (1.3 or 3.4 μM) for 24 hr at 37° C. in 5% CO2. Cells were then lysed with 500 μL of 0.1% Triton X-100 for 30 min at 37° C. The lysates were collected and centrifuged at 1,000×g for 10 min at 4° C., and 50 μL of supernatant was mixed with 50 μL of CellTiter-Glo reagent. […] Total luminescence was measured with a Victor 3 luminometer (Perkin-Elmer, Inc). […]

TIGK cells [2] = test: LDH assay (BAR, BAR-EFs); assay type: cell-based
Procedure: as §1
LDH Assay: Cell membrane leakage was measured by assessing the release of lactate dehydrogenase (LDH). Extracellular LDH was quantified using a CytoTox96® non-radioactive cytotoxicity assay (Promega, Madison WI) as described by the manufacturer. TIGK cells were plated at density of 6×10^4 cells in 1 mL media per well in a 12-well flat bottom plate, and incubated at 37° C., 5% CO2 for 24 hr. BAR or 10:90 PLGA-PEO BAR-EFs (1.3 or 3.4 μM) were added to cells in triplicate for 24 hr at 37° C. in 5% CO2. Fifty microliters of supernatant from free BAR and BAR-EF-treated (1.3 and 3.4 μM) cells were added to the LDH substrate and incubated at room temperature for 30 min. […] LDH activity was determined by measuring the optical density of the solution at 490 nm. […]

TIGK cells [3] = test: ATP assay (BAR NPs); assay type: cell-based; conditions: 1 ng staurosporine, vs untreated and NP-treated cells
Procedure: Total ATP levels in cell culture were assessed by using the CellTiter-Glo reagent (Promega, Madison WI), as described by the manufacturer. TIGK cells were seeded at a density of 6×10^4 cells in 1 mL media per well and incubated at 37° C., 5% CO2 for 24 hr in a 12-well flat bottom plate. Cells were then incubated with CafA-modified BAR-NPs or unmodified BAR-NPs (1.3 or 3.4 μM) for 24 hr at 37° C. in 5% CO2. Cells were then lysed with 500 μL of 0.1% Triton X-100 for 30 min at 37° C. The lysates were collected and centrifuged at 1,000×g for 10 min at 4° C., and 50 μL of supernatant was mixed with 50 μL of CellTiter-Glo reagent. Samples were incubated at ambient temperature for 10 min in a black 96-well plate in the dark. Total luminescence was measured with a Victor 3 luminometer (Perkin-Elmer, Inc). Cells incubated with 1 ng of staurosporine or with medium-only served as positive and negative controls for cell death, respectively.

TIGK cells [4] = test: LDH assay (BAR NPs); assay type: cell-based; conditions: staurosporine, vs control or treated cells
Procedure: Cell membrane leakage was measured by the release of lactate dehydrogenase (LDH). Extracellular LDH was quantified using a CytoTox96® non-radioactive cytotoxicity assay (Promega, Madison WI) as described by the manufacturer. TIGK cells were plated at density of 6×10^4 cells in 1 mL media per well in a 12-well flat bottom plate, and incubated at 37° C., 5% CO2 for 24 hr. CafA-modified BAR NPs or unmodified BAR NPs (1.3 or 3.4 μM) were added to cells in triplicate for 24 hr at 37° C. in 5% CO2. Fifty microliters of supernatant from CafA-modified BAR NP- and unmodified BAR NP-treated (1.3 and 3.4 μM) cells were added to the LDH substrate and incubated at room temperature for 30 min. The reactions were subsequently terminated by adding 50 μL of stop solution. LDH activity was determined by measuring the optical density of the solution at 490 nm. Cells treated with staurosporine or with medium-only served as positive and negative controls for cell death, respectively.

[5] = test system: pre-established P. gingivalis-S. gordonii biofilms; test: Biofilm disruption assay; assay type: cell-based, P. gingivalis (ATCC 33277) / S. gordonii DL-1; conditions: 3.0 μM, 3 hr on 24 hr biofilms
Procedure: The resulting P. gingivalis S. gordonii biofilms were then treated for the maximum duration observed for free BAR to disrupt existing biofilms (3 hr). Established biofilms were administered BAR-EFs, free BAR or blank EFs at various concentrations in 1 mL PBS, and processed and analyzed as described above. The mean and standard deviation (SD) between samples were determined and the percent disruption of P. gingivalis adherence was calculated with the following formula: GR sample/GR control.

TIGK cells [6] = test: MTT assay (BAR, BAR-EFs); assay type: cell-based; conditions: 1.3 or 3.4 μM, 24 hr, relative to medium-only treated cells
Procedure: as §1
MTT Assay: TIGK cells were seeded in 12-well plates at a density of 6×10^4 cells in 1 mL media per well and incubated for 24 hr to allow for 60-70% confluency and sufficient adhesion. Cells were treated with 1.3 or 3.4 μM of BAR or 10:90 PLGA-PEO BAR-EFs. After 24 hr, 100 μL of MTT solution was added to the media of all samples. After 4 hr incubation at 37° C., 550 μL of lysis buffer was added to the media of each well and plates were incubated for overnight. The absorbance of each well was read at 570 nm, and the sample absorbance was normalized to the absorbance of medium-only treated cells. Cells were treated with 10% DMSO media (100 μL DMSO in 900 μL media) as a positive control for cell death.

TIGK cells [7] = test: Oxidative DNA damage (AP sites); assay type: cell-based; conditions: 1.3 or 3.4 μM, 24 hr
Procedure: as §1
Oxidative DNA Damage: Free radicals and other reactive species are generated from cells under stress and cause oxidative damage to biomolecules. DNA is the most targeted site of oxidative attack. […] OxiSelect™ Oxidative DNA Damage Quantitation Kit (Cell Biolabs, INC., San Diego, CA, USA) was used to quantify AP sites in cells treated with free BAR or 10:90 PLGA-PEO BAR-EFs (1.3 or 3.4 μM) as described by the manufacturer. […] AP sites were determined in genomic DNA by using a biotinylated aldehyde reactive probe (ARP) that reacts specifically with an aldehyde group of AP sites, followed by colorimetric detection using a streptavidin-enzyme conjugate (450 nm). The quantity of AP sites in DNA samples was determined by comparing the absorbance with standard curve of known amount of AP sites.

[8] = test system: P. gingivalis adherence to S. gordonii; conditions: 3.0 μM
Procedure: P. gingivalis (ATCC 33277) was grown in Trypticase soy broth (Difco Laboratories Inc., Livonia, MI, USA) supplemented with 0.5% (w/v) yeast extract, 1 μg/mL menadione, and 5 μg/mL hemin. The medium was reduced for 24 hr under anaerobic conditions (10% CO2, 10% H2, and 80% N2) and P. gingivalis was subsequently inoculated and grown anaerobically for 48 hr at 37° C. S. gordonii DL-1 was cultured aerobically without shaking in brain-heart infusion broth (Difco Laboratories Inc.) supplemented with 1% yeast extract for 16 hr at 37° C.
To assess the effectiveness of BAR-incorporated EFs to prevent the interaction of P. gingivalis with S. gordonii, S. gordonii was harvested from culture and labeled with 20 μL of 5 mg/mL hexidium iodide for 15 min at room temperature. Following incubation, cells were centrifuged to remove unbound fluorescent dye. The bacterial concentration was subsequently measured by the OD (600 nm) from twenty-fold diluted cultures of S. gordonii. […]
Plates containing P. gingivalis and S. gordonii were subsequently incubated for 24 hr at 37° C. in anaerobic conditions. […] Images were analyzed with Volocity image analysis software (version 6.3; Perkin Elmer, Waltham, MA, USA) to determine the ratio of green to red fluorescence (GR), representing P. gingivalis and S. gordonii, respectively. Control samples were used to subtract background levels of auto-fluorescence. […]

sheep erythrocytes = conditions: 1.3, 3.4 μM, 3 hr, relative to H2O-treated cells
Procedure: Hemolytic Assay: A sample of 250 μL of 1% sheep erythrocytes (Rockland Inc, Pennsylvania, USA) was suspended in sterile PBS. […] Water replaced PBS as a positive control for cell hemolysis. The suspension was incubated at 37° C. for 3 hr then centrifuged at 3,500×g. Hemoglobin released due to cell lysis was analyzed by measuring the absorbance at 541 nm.

[9] = test system: P. gingivalis adherence to S. gordonii; conditions: cited from earlier work
[10] = target: T1, minor fimbriae (Mfal) of P. gingivalis (Porphyromonas gingivalis, UniProt B2RHG1 50-563); test: cell-based or functional assay
T1 sequence (looked up): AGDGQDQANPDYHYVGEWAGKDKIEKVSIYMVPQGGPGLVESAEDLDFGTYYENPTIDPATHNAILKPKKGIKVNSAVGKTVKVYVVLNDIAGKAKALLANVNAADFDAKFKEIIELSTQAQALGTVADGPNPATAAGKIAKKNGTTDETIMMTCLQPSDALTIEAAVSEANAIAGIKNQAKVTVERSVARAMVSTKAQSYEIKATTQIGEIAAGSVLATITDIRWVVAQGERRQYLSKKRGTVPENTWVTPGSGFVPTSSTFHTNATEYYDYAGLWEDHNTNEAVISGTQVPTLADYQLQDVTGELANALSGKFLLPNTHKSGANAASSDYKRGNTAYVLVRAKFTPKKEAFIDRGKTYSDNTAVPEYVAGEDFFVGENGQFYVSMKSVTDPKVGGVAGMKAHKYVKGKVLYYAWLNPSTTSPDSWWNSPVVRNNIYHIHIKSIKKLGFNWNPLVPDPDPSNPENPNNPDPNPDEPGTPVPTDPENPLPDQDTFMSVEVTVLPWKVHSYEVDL

## CN[C@@H]1C[C@H]2O[C@@](C)([C@@H]1OC)n1c3ccccc3c3c4c(c5c6ccccc6n2c5c31)C(=O)NC4 [Staurosporine, staurosporine, reference compound]
TIGK cells [1]; 1 ng staurosporine, vs medium-only, free BAR and BAR-EF treated cells
  ATP levels (positive control): significantly lower levels of ATP
TIGK cells [2]; staurosporine, relative to medium-only, free BAR and BAR-EFs
  LDH released (positive control): significantly higher level of LDH
TIGK cells [3]
  ATP levels (positive control): significantly lower levels of ATP
TIGK cells [4]
  LDH activity released (positive control): significantly higher

## H-LEAAPKKVQDLLKKANITVKGAFQLFS-OH [free BAR, NH2-LEA APK KVQ DLL KKA NIT VKG AFQ LFS-COOH]
[5]
  Biofilm formation disrupted: 66%
TIGK cells [6]
  TIGK cell viability (MTT): no loss in viability
TIGK cells [1]; 1.3 or 3.4 μM, 24 hr
  ATP levels relative to medium-only treated cells: no decrease in ATP
TIGK cells [2]; 1.3 or 3.4 μM, 24 hr
  LDH released relative to medium-only treated cells: no change in levels of LDH
TIGK cells [7]
  Number of AP sites relative to medium-only treated cells: no change in the number of AP sites
[8]
  Biofilm formation inhibited: 81%
Sheep erythrocytes
  Hemolytic activity: negligible hemolysis
[9]; previously determined, read-out: previously determined IC50 of free BAR
  IC50: 1300 nM
[9]; used in in vitro and in vivo studies
  maximum effective concentration: 3.4 µM

## LEAAPKKVQDLLKKANITVKGAFQLFS [BAR (SspB Adherence Region) peptide]
[10]
  IC50 of biofilm disruption, BAR-incorporated 10:90 PLGA:PEO EFs: 2000 nM
  IC50 of inhibition of biofilm formation, BAR-incorporated 10:90 PLGA:PEO EFs: 1300 nM

Reference: patent publication US20230302084A1, “METHODS AND COMPOSITIONS FOR TREATING PERIODONTAL DISEASE” (priority 2020, published 2023)
